B1: biotin-labeled murine PD-1 protein (cat no. 71118, BPS Bioscience) (receptor, UniProt Q02242 25-167, looked up)
chain: LEVPNGPWRSLTFYPAWLTVSEGANATFTCSLSNWSEDLMLNWNRLSPSNQTEKQAAFCNGLSQPVQDARFQIIQLPNRHDFHMNILDTRRNDSGIYLCGAISLHPKAKIEESPGAELVVTERILETSTRYPSPSPKPEGRFQ
notes: also called biotin-labeled PD-1 protein

Assays:
[1] = tested on: melanoma cell line B16F10; test: Cytotoxicity assay (MTT) in B16F10; assay type: cell-based, mouse; details: B16F10 cells
Procedure: (§1) First, 10^4 cells of each cell line were seeded in a 96-well plate, and cultured for 24 hours. After culturing for 4 hours in a serum-free culture medium, the peptides at each concentration were injected into the wells and further incubated for 4 hours. After discarding a supernatant, 0.5 mg/ml of MTT-containing medium was treated and then left for 2 hours, formazan crystals in the cells were dissolved in each well using dimethyl sulfoxide. Then, cytotoxicity was analyzed by measuring absorbance at 570 nm using a microplate reader.

[2] = tested on: fibroblast cell line NIH3T3; test: Cytotoxicity assay (MTT) in NIH3T3; assay type: cell-based, mouse; details: NIH3T3 cells
Procedure: as §1

[3] = molecular target: T1, PD-L1 on tumor-derived exosomes (T-EXO) isolated from the plasma of B16F10 melanoma tumor-bearing mice (mouse, UniProt Q9EP73 19-290); test: ELISA: T-EXO captured on PD-L1 antibody-coated plate, biotin-labeled murine PD-1 (4 ug/ml) detected with streptavidin-HRP, OD 450 nm
T1 construct: whole, on cells; also called PD-L1^EXO; exosomal PD-L1
T1 sequence (Q9EP73 19-290, one chain of several): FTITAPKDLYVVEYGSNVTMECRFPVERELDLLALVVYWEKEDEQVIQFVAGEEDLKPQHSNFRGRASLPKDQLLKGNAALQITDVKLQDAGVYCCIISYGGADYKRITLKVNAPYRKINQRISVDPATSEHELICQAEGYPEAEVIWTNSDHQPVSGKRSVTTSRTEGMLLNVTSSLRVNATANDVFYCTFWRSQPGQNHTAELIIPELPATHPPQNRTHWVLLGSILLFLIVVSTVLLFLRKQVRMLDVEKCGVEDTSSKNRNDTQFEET
Procedure: After treating the plate for 2 hours, the plate was washed with PBS-T (PBS containing 0.05% Tween-20). […] Wells were washed with PBS-T three times, and treated with horseradish peroxidase-conjugated streptavidin (100 μl per well; R&D Systems) diluted in 0.5% BSA-containing PBS for 30 minutes. After washing with PBS-T, the plate was treated with tetramethylbenzidine (R&D Systems) and the reaction was stopped by adding 0.5 N H₂SO₄.

Molecule | cytotoxicity [1] | cytotoxicity ([1]; listed as AH peptide) | cytotoxicity [2] | cytotoxicity ([2]; listed as AH peptide) | binding result [3]
CC[C@@H](C)[C@@H](NC(=O)[C@@H](Cc1c[nH]c2ccccc12)NC(=O)[C@@H](CC(=O)O)NC(=O)[C@@H](Cc1c[nH]c2ccccc12)NC(=O)[C@H](NC(=O)[C@@H](CC(=O)O)NC(=O)[C@@H](CCCNC(=N)N)NC(=O)[C@@H](CC(C)C)NC(=O)[C@@H](Cc1c[nH]c2ccccc12)NC(=O)[C@@H](CO)NC(=O)CNC(=O)[C@H](N)CO)C(C)C)C(=O)N[C@H](CS)C(=O)N[C@@H](C(=O)N[C@@H](C(=O)N[C@H](CC(C)C)C(=O)N[C@@H](C(=O)N[C@H](CC(=O)O)C(=O)N[C@H](Cc1ccccc1)C(=O)N[C@H](CCCCN)C(=O)N[C@@H](C(=O)N[C@H](Cc1c[nH]c2ccccc12)C(=O)N[C@H](CC(C)C)C(=O)N[C@H](CCC(N)=O)C(=O)N[C@H](CO)C(=O)N[C@H](CCCCN)C(=O)N[C@H](CC(C)C)C(N)=O)[C@H](C)O)[C@H](C)O)C(C)C)[C@H](C)O [AH-D peptide] | neither the AH-D peptide nor the NH-D peptide has cytotoxicity | did not exhibit cytotoxicity | neither the AH-D peptide nor the NH-D peptide has cytotoxicity | did not exhibit cytotoxicity | –
CC(C)C[C@@H](NC(=O)[C@@H](CCCCN)NC(=O)[C@@H](CO)NC(=O)[C@@H](CCC(N)=O)NC(=O)[C@@H](CC(C)C)NC(=O)[C@@H](Cc1c[nH]c2ccccc12)NC(=O)[C@H](NC(=O)[C@@H](CCCCN)NC(=O)[C@@H](CC(=O)O)NC(=O)[C@@H](CC(=O)O)NC(=O)[C@H](NC(=O)[C@@H](CC(C)C)NC(=O)[C@H](NC(=O)[C@H](NC(=O)[C@@H](CS)NC(=O)[C@@H](CCC(=O)O)NC(=O)[C@@H](Cc1c[nH]c2ccccc12)NC(=O)[C@@H](CC(=O)O)NC(=O)[C@@H](Cc1c[nH]c2ccccc12)NC(=O)[C@@H](CC(=O)O)NC(=O)[C@@H](CC(=O)O)NC(=O)[C@@H](CCCNC(=N)N)NC(=O)[C@@H](CC(C)C)NC(=O)[C@@H](Cc1c[nH]c2ccccc12)NC(=O)[C@@H](CO)NC(=O)CNC(=O)[C@H](N)CO)[C@H](C)O)C(C)C)[C@H](C)O)[C@H](C)O)C(N)=O [NH-D peptide, reference compound] | neither the AH-D peptide nor the NH-D peptide has cytotoxicity | – | neither the AH-D peptide nor the NH-D peptide has cytotoxicity | – | –
B1 | – | – | – | – | binds
